Tests used:
Assay type in all cases: binding
panel of 442 kinases [1] = molecular target: panel of 442 kinases (Homo sapiens, UniProt P19784); details: Compound Concentration 10 µM
Source text: (§1) We assessed the selectivity of members of this scaffold using the KINOMEscan methodology across a near comprehensive panel of 442 kinases [[18,27]].

panel of 442 kinases [2] = molecular target: T1, panel of 442 kinases (Homo sapiens, UniProt P29597); details: compound concentration 10 µM; for % Ctrl, TYK2(JH1domain-catalytic): kinase TYK2(JH1domain-catalytic); for % Ctrl, TYK2(JH2domain-pseudokinase): kinase TYK2(JH2domain-pseudokinase)
T1 construct: purchased KINOMEscan
T1 sequence (P29597 whole entry): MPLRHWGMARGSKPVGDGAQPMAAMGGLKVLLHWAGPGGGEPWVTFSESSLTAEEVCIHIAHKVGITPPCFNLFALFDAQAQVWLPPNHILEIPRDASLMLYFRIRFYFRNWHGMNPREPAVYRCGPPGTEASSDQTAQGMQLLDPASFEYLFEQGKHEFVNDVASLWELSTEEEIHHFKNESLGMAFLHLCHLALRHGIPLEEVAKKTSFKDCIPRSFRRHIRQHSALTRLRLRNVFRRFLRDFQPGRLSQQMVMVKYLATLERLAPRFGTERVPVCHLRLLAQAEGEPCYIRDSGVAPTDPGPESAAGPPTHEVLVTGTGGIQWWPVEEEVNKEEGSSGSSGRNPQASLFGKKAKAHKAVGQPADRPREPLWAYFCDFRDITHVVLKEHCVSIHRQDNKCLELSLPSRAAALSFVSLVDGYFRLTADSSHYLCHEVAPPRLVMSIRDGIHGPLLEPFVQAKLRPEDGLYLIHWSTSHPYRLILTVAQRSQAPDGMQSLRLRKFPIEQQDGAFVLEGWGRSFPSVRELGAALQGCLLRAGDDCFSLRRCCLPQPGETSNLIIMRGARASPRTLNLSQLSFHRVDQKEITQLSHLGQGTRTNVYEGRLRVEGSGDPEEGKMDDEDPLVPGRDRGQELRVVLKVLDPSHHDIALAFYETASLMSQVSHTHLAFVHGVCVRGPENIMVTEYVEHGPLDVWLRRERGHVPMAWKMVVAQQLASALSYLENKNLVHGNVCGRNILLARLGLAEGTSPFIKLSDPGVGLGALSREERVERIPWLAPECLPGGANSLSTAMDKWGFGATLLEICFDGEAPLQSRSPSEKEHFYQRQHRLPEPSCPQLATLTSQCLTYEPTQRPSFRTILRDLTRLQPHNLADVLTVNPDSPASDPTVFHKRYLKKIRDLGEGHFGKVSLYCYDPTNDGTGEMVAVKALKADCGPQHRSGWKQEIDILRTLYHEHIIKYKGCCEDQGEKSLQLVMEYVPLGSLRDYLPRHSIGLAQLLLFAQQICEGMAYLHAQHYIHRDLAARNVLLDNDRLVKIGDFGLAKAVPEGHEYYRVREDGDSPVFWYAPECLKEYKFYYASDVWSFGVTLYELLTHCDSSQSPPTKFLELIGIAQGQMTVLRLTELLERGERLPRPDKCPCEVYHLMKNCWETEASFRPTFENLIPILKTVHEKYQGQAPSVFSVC
Source text: as §1

panel of 442 kinases [3] = molecular target: T2, panel of 442 kinases (Homo sapiens, UniProt P35916); details: Compound Concentration 10 µM
T2 construct: purchased KINOMEscan
T2 sequence (P35916 25-1363): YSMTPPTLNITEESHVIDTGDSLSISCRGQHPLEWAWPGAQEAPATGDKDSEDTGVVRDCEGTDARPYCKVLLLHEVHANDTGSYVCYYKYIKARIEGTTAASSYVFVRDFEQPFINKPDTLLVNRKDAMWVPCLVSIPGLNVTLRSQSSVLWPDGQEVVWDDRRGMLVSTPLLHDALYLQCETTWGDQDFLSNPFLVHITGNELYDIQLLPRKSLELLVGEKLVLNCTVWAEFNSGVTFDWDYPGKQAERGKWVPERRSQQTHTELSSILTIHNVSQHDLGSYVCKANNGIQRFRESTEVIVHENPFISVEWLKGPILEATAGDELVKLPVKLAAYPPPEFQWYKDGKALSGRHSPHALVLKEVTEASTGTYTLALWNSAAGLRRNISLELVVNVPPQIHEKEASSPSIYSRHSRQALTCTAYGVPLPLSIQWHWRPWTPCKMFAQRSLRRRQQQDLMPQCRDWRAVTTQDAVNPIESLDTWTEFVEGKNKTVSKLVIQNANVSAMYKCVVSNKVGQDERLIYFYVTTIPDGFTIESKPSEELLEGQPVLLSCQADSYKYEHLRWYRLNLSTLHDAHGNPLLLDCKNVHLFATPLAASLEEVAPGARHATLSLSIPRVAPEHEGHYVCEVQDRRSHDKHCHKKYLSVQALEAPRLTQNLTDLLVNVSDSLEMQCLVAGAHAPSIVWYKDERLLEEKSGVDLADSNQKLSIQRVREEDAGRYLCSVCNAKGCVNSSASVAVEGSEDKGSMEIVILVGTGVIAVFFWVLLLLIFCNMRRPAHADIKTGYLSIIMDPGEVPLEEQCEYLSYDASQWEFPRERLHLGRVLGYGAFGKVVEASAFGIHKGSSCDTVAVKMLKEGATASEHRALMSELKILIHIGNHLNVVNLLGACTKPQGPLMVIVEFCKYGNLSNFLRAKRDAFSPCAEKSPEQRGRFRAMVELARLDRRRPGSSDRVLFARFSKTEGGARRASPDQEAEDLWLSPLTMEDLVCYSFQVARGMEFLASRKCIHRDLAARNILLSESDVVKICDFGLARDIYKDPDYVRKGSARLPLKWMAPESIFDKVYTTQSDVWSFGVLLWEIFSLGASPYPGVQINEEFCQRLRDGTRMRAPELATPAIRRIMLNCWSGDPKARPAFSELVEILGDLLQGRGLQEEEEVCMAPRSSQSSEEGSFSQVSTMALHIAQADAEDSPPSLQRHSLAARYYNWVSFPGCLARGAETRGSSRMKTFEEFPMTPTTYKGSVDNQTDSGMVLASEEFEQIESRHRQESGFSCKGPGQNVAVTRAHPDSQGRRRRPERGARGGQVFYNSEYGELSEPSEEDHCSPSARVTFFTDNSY
Source text: as §1

panel of 442 kinases [4] = molecular target: T3, panel of 442 kinases (Homo sapiens, UniProt Q9UBF8); details: Compound Concentration 10 µM
T3 construct: purchased KINOMEscan
T3 sequence (Q9UBF8 whole entry): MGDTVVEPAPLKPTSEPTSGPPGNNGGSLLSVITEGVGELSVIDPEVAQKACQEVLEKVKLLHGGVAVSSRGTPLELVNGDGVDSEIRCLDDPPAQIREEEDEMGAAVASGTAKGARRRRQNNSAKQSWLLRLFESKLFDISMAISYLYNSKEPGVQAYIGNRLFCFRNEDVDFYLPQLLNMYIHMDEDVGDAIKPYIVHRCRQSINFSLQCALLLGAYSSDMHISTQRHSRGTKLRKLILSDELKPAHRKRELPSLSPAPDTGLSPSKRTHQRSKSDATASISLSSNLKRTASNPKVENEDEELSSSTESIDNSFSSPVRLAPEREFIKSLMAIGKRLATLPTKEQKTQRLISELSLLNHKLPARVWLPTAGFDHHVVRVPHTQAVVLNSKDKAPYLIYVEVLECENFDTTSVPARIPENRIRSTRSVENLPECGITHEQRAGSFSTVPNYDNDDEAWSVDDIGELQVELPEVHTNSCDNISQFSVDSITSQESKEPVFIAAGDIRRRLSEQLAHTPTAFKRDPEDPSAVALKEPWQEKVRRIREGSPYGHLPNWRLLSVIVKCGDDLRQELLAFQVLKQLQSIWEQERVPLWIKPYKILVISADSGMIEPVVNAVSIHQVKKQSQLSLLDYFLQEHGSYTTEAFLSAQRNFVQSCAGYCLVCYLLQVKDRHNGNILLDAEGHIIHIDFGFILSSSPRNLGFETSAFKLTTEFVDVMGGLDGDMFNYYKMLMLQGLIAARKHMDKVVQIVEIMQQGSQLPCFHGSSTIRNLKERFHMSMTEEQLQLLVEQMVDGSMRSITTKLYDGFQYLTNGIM
Source text: as §1

panel of 442 kinases (Homo sapiens, UniProt P19784), sequence (P19784 whole entry): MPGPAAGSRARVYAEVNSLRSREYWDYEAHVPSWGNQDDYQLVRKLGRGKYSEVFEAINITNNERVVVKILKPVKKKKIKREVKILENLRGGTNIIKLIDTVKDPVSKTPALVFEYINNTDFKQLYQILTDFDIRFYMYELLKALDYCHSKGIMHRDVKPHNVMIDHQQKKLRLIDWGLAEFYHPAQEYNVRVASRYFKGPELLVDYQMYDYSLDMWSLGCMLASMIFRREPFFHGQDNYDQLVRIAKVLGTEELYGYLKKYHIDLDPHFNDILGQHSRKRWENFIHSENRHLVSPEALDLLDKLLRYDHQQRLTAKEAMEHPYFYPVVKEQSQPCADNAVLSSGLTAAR

Compound	KINOMEscan: CSNK2A2 (panel of 442 kinases [1])	% Ctrl, TYK2(JH1domain-catalytic) (panel of 442 kinases [2])	% Ctrl, TYK2(JH2domain-pseudokinase) (panel of 442 kinases [2])	KINOMEscan: FLT4 (panel of 442 kinases [3])	KINOMEscan: PIK4CB (panel of 442 kinases [4])
CCOc1cc(C(=O)N2CCC(N3CCN(C)CC3)CC2)ccc1Nc1ncc2c(n1)N(C1CCCC1)c1ccccc1C(=O)N2C [Compound 26]	97	81 % Ctrl	100 % Ctrl	100	100
COc1cc(C(=O)N2CCC(N3CCN(C)CC3)CC2)ccc1Nc1ncc2c(n1)N(C1CCCC1)c1ccccc1C(=O)N2C [Compound 25, 11-cyclopentyl-2-((2-methoxy-4-(4-(4-methylpiperazin-1-yl)piperidine-1-carbonyl)phenyl)amino)-5-methyl-5H-benzo[e]pyrimido[5,4-b][1,4]diazepin-6(11H)-one]	100	100 % Ctrl	100 % Ctrl	100	100
COc1cc(C(=O)N2CCC(N3CCN(C)CC3)CC2)ccc1Nc1ncc2c(n1)N(C)c1ccccc1C(=O)N2C [15 (LRRK2-IN-1)]	93	52 % Ctrl	100 % Ctrl	100	95
